In patent US20250032524A1, “BROAD SPECTRUM AMINOGLYCOSIDES AND USES THEREOF” (REVAGENIX, INC., priority 2022, published 2025) one finds MIC, MIC50 and MIC90 data, which are given here for 5 compounds.

Where two headings read alike, the source gives them in different places.

Common to all, as to assay type: cell-based
Assay [1] concerns A. baumannii. Briefly: MIC broth microdilution (CLSI). To be noted: Acinetobacter baumannii. The method, then:
(§1) Minimum inhibitory concentrations for representative example compounds herein were determined by a broth microdilution method in accordance with the Clinical and Laboratory Standards Institute (CLSI) guidelines. In brief, organism suspensions were adjusted to a 0.5 McFarland standard to yield a final inoculum between 3×10^5 and 7×10^5 colony-forming units (CFU)/mL. The inoculum was prepared by suspension of a colony from an agar plate that was prepared the previous day. Compound dilutions and inoculum were prepared in sterile, cation adjusted Mueller-Hinton Broth (Beckton Dickinson).
(§2) Bacteria were suspended in sterile saline and added to each assay plate to obtain a final concentration of 5×10^5 CFU/mL. An inoculum volume of 100 μL was added to wells containing 100 μL of broth with 2-fold serial dilutions of the test compound. All inoculated microdilution trays were incubated in ambient air at 35° C. for 18-24 hours. Following incubation, the lowest concentration of the compound that prevented visible growth (OD 600 nm<0.05) is recorded was the MIC. […] Performance of the assay was monitored by the use of laboratory quality-control strains and a standard compound with a defined MIC spectrum (neomycin), in accordance with CLSI guidelines.
For orientation: Dilution methods test growth across graded concentrations, often in twofold steps.

Assay [2] concerns E. coli. Briefly: MIC broth microdilution (CLSI). To be noted: Escherichia coli. As to the method: as §1, §2
In assay [3] the test system is P. aeruginosa. As to the kind of experiment: MIC broth microdilution (CLSI). To be noted: Pseudomonas aeruginosa. As to the method: as §1, §2
Assay [4] deals with Methicillin-resistant S. aureus (MRSA). As to the kind of experiment: Antibacterial surveillance of clinical isolates (MIC50/90). As to conditions: 30 isolates. The method, then:
as §1, §2
(§3) Several compounds of the disclosure (Compound 1, 2, and 3) were further evaluated against several hundred bacterial isolates (isolated in the United States and Europe, 1:1) selected from the SENTRY Antimicrobial Surveillance Program (JMI Laboratories, North Liberty, Iowa). The set of clinical isolates included 300 randomly selected Enterobacterales, 103 randomly selected P. aeruginosa, 100 randomly selected A. baumannii-calcoaceticus, 20 randomly selected Methicillin-sensitive S. aureus (MSSA), and 30 randomly selected Methicillin-resistant S. aureus (MRSA). In addition, 101 Enterobacterales and 50 P. aeruginosa isolates with genetically defined mechanisms of aminoglycoside resistance were included. The MIC values at which ≥50% (MIC50) and ≥90% (MIC90) of isolates within a given set are inhibited were determined for each compound against each set of organisms.

Assay [5] relates to AG-resistant P. aeruginosa. The description is as above. To be noted: 50 isolates with defined aminoglycoside resistance. As to the method:
as §1, §2, §3

Assay [6] relates to AG-resistant Enterobacterales. The description is as above. As to conditions: 101 isolates with defined aminoglycoside resistance. As to the method:
as §1, §2, §3

Assay [7] has as its system A. baumannii-calcoaceticus. The description is as above. To be noted: 100 isolates. As to the method: as §1, §2, §3
Assay [8] relates to Methicillin-sensitive S. aureus (MSSA). The description is as above. To be noted: 20 isolates. As to the method: as §1, §2, §3
Assay [9] relates to P. aeruginosa. Described as above. To be noted: 103 isolates. As to the method: as §1, §2, §3
[10] abbreviates: read-out: Activity (MIC), strain NABA0007, ΔadeJK efflux.
[11] abbreviates: strain NABA0006, WT parent, read-out: Activity (MIC).
The mark [12] stands for this setting: strain NABA0020, AME negative strain, read-out: Activity (MIC).
The mark [13] stands for this setting: read-out: Activity (MIC), strain NECO0003, ΔtolC.
[14] abbreviates: read-out: Activity (MIC), strain NECO0245, ArmA.
Setting [15] is: strain NECO0001, WT QC, read-out: Activity (MIC).
Where [16] appears, read: strain NECO0002, WT, read-out: Activity (MIC).
Setting [17] is: strain NECO0243, empty vector, read-out: Activity (MIC).
[18] abbreviates: strain NECO0244, AAC(6')-Ib, read-out: Activity (MIC).
Setting [19] is: strain NECO0289, APH(3')-Ia, read-out: Activity (MIC).
The mark [20] stands for this setting: strain NECO0302, AAC(3)-IIa, read-out: Activity (MIC).
[21] abbreviates: strain NECO0350, AAC(2')-I, read-out: Activity (MIC).
The mark [22] stands for this setting: strain NECO0359, ANT(4')-Ia, read-out: Activity (MIC).
Where [23] appears, read: read-out: Activity (MIC), strain NPAE0006, Efflux KO, Aph(3')-IIb.
[24] abbreviates: read-out: Activity (MIC), strain NPAE0010, MexXY over-expressed, Aph(3')-IIb.
The mark [25] stands for this setting: strain NPAE0001, WT Aph(3')-IIb, QC, read-out: Activity (MIC).
Where [26] appears, read: strain NPAE0002, WT Aph(3')-IIb, read-out: Activity (MIC).
Where [27] appears, read: strain NPAE0359, aph(3')-IIb KO (tetR), read-out: Activity (MIC).

Consider `C[C@@H](N)[C@@H]1CC[C@@H](N)[C@@H](O[C@@H]2[C@@H](N)[C@H](O)[C@@H](NC(=O)[C@@H](O)[C@H](F)CN)[C@H](O)[C@H]2O[C@@H]2O[C@H](CO)[C@@H](O[C@H]3O[C@@H](CN)[C@@H](O)[C@H](O)[C@H]3N)[C@H]2O)O1` [Compound 4, (2R,3R)-4-amino-N-((1R,2S,3S,4R,5R,6S)-3-amino-4-(((2R,3R,6S)-3-amino-6-((R)-1-aminoethyl)tetrahydro-2H-pyran-2-yl)oxy)-5-(((2S,3R,4S,5R)-4-(((2R,3R,4R,5S,6S)-3-amino-6-(aminomethyl)-4,5-dihydroxytetrahydro-2H-pyran-2-yl)oxy)-3-hydroxy-5-(hydroxymethyl)tetrahydrofuran-2-yl)oxy)-2,6-dihydroxycyclohexyl)-3-fluoro-2-hydroxybutanamide], for which the minimal inhibitory concentration (MIC) in assay [1] (setting [10]), in [1] (setting [11]), in assay [1] (setting [12]), in assay [2] (setting [13]), in assay [2] (setting [14]) and in [2] (setting [15]) was below 16 µg/mL in each case. Besides, the minimal inhibitory concentration (MIC) in assay [2] (setting [16]), in [2] (setting [17]), in [2] (setting [18]), in assay [2] (setting [19]), in assay [2] (setting [20]) and in [2] (setting [21]) was below 16 µg/mL throughout. The minimal inhibitory concentration (MIC) in assay [2] (setting [22]), in assay [3] (setting [23]), in [3] (setting [24]), in [3] (setting [25]), in assay [3] (setting [26]) and in assay [3] (setting [27]) was below 16 µg/mL each time.

For the compound `C[C@@H](N)[C@@H]1CC[C@@H](N)[C@@H](O[C@@H]2[C@@H](N)[C@H](O)[C@@H](NC(=O)[C@@H](O)CCN)[C@H](O)[C@H]2O[C@@H]2O[C@H](CO)[C@@H](O[C@H]3O[C@@H](CN)[C@@H](O)[C@H](O)[C@H]3N)[C@H]2O)O1` [Compound 5, (S)-4-Amino-N-((1R,2S,3S,4R,5R,6S)-3-Amino-4-(((2R,3R,6S)-3-Amino-6-((R)-1-Aminoethyl)Tetrahydro-2H-Pyran-2-Yl)Oxy)-5-(((2S,3R,4S,5R)-4-(((2R,3R,4R,5S,6S)-3-Amino-6-(Aminomethyl)-4,5-Dihydroxytetrahydro-2H-Pyran-2-Yl)Oxy)-3-Hydroxy-5-(Hydroxymethyl)Tetrahydrofuran-2-Yl)Oxy)-2,6-Dihydroxycyclohexyl)-2-Hydroxybutanamide], the minimal inhibitory concentration (MIC) in assay [1] (setting [10]), in assay [1] (setting [11]), in assay [1] (setting [12]), in [2] (setting [13]), in assay [2] (setting [14]) and in assay [2] (setting [15]) was below 16 µg/mL in each case. For the same compound, the minimum inhibitory concentration (MIC) in assay [2] (setting [16]), in assay [2] (setting [17]), in assay [2] (setting [18]), in assay [2] (setting [19]), in assay [2] (setting [20]) and in assay [2] (setting [21]) was below 16 µg/mL throughout. Further, the minimum inhibitory concentration (MIC) in assay [2] (setting [22]), in assay [3] (setting [23]), in [3] (setting [24]), in assay [3] (setting [25]), in assay [3] (setting [26]) and in assay [3] (setting [27]) was below 16 µg/mL each time.

Take `CN[C@@H](C)[C@@H]1CC[C@@H](N)[C@@H](O[C@@H]2[C@@H](N)[C@H](O)[C@@H](NC(=O)[C@@H](O)[C@H](F)CN)[C@H](O)[C@H]2O[C@@H]2O[C@H](CO)[C@@H](O[C@H]3O[C@@H](CN)[C@@H](O)[C@H](O)[C@H]3N)[C@H]2O)O1` [Compound 7, (2R,3R)-4-amino-N-((1R,2S,3S,4R,5R,6S)-3-amino-4-(((2R,3R,6S)-3-amino-6-((S)-1-(methylamino)ethyl)tetrahydro-2H-pyran-2-yl)oxy)-5-(((2S,3R,4S,5R)-4-(((2R,3R,4R,5S,6S)-3-amino-6-(aminomethyl)-4,5-dihydroxytetrahydro-2H-pyran-2-yl)oxy)-3-hydroxy-5-(hydroxymethyl)tetrahydrofuran-2-yl)oxy)-2,6-dihydroxycyclohexyl)-3-fluoro-2-hydroxybutanamide]: the MIC in assay [1] (setting [10]), in [1] (setting [11]), in assay [1] (setting [12]), in [2] (setting [13]), in assay [2] (setting [14]) and in [2] (setting [15]) was below 16 µg/mL each time. For the same compound, the minimal inhibitory concentration (MIC) – broadly, the least concentration at which growth counts as inhibited – in assay [2] (setting [16]) is below 16 µg/mL; in assay [2] (setting [17]), below 16 µg/mL; in assay [2] (setting [18]), below 16 µg/mL; in [2] (setting [19]) it was above 16 µg/mL; in [2] (setting [20]), below 16 µg/mL; in [2] (setting [21]), below 16 µg/mL. Besides, the MIC in assay [2] (setting [22]) is below 16 µg/mL; in assay [3] (setting [23]), below 16 µg/mL; in assay [3] (setting [24]), above 16 µg/mL; in assay [3] (setting [25]), below 16 µg/mL; in [3] (setting [26]), below 16 µg/mL; in assay [3] (setting [27]), below 16 µg/mL.

Turning to `C[C@H](N)[C@@H]1CC[C@@H](N)[C@@H](O[C@@H]2[C@@H](N)[C@H](O)[C@@H](N)[C@H](O)[C@H]2O[C@@H]2O[C@H](CO)[C@@H](O[C@H]3O[C@@H](CN)[C@@H](O)[C@H](O)[C@H]3N)[C@H]2O)O1` [Compound 8, (2S,3S,4R,5R,6R)-5-amino-2-(aminomethyl)-6-(((2R,3S,4R,5S)-5-(((1R,2R,3S,4R,5R,6S)-3,5-diamino-2-(((2R,3R,6S)-3-amino-6-((S)-1-aminoethyl)tetrahydro-2H-pyran-2-yl)oxy)-4,6-dihydroxycyclohexyl)oxy)-4-hydroxy-2-(hydroxymethyl)tetrahydrofuran-3-yl)oxy)tetrahydro-2H-pyran-3,4-diol], the minimal inhibitory concentration (MIC) in assay [1] (setting [10]) is below 16 µg/mL; in assay [1] (setting [11]), below 16 µg/mL; in [1] (setting [12]) it was above 16 µg/mL; in assay [2] (setting [13]), below 16 µg/mL; in assay [2] (setting [14]) it was below 16 µg/mL; in [2] (setting [15]), below 16 µg/mL. In addition, the minimal inhibitory concentration (MIC) was below 16 µg/mL in [2] (setting [16]); below 16 µg/mL in [2] (setting [17]); below 16 µg/mL in assay [2] (setting [18]); above 16 µg/mL in assay [2] (setting [19]); below 16 µg/mL in [2] (setting [20]); below 16 µg/mL in assay [2] (setting [21]). For the same compound, the MIC in [2] (setting [22]), in [3] (setting [23]), in [3] (setting [24]), in [3] (setting [25]), in assay [3] (setting [26]) and in [3] (setting [27]) was below 16 µg/mL each time.

Take gentamicin [reference compound]: the MIC50 entry in assay [4] was “+/+ (+ = MIC50 or MIC90 ≤ 16 μg/mL)”; in assay [5], “+ (+ = MIC50 or MIC90 ≤ 16 μg/mL)”; in assay [6], “−/− (− = MIC50 or MIC90 > 16 μg/mL)”; in assay [7], “+ (+ = MIC50 or MIC90 ≤ 16 μg/mL)”; in [8] it was “+/+ (+ = MIC50 or MIC90 ≤ 16 μg/mL)”; in assay [9], “+/+ (+ = MIC50 or MIC90 ≤ 16 μg/mL)”. The MIC90 entry in [4] was “+/+ (+ = MIC50 or MIC90 ≤ 16 μg/mL)”; in assay [5], “− (− = MIC50 or MIC90 > 16 μg/mL)”; in [6] it was “−/− (− = MIC50 or MIC90 > 16 μg/mL)”; in [7] it was “− (− = MIC50 or MIC90 > 16 μg/mL)”; in assay [8], “+/+ (+ = MIC50 or MIC90 ≤ 16 μg/mL)”; in assay [9], “+/+ (+ = MIC50 or MIC90 ≤ 16 μg/mL)”.
